Data on four compounds can be found in US20160303094A1, “PHARMACEUTICAL COMPOSITIONS COMPRISING ANTIBACTERIAL AGENTS” (priority 2013, published 2016).

This test has as its system A. baumannii S 226 strain producing CHDL Oxacillinases (OXA 51, OXA-23). The experiment in a line: Time-kill study: viable bacterial count in Mueller Hinton broth. Format: cell-based, Acinetobacter baumannii. Particulars: for Bacterial count: initial count 6.62 log CFU/ml. The method, then: The antibacterial activity of compositions according to the invention against various bacterial strains was investigated. In a typical study, freshly grown cultures were diluted to required cell density (initial starting inoculum) in Mueller Hinton broth medium (BD, USA). The antibacterial agents, either alone or in combination, at required concentrations were added into the medium containing the desired initial starting inoculum. The samples were incubated under shaking condition (120 rpm) at 37° C. Enumeration of viable bacterial count was undertaken, every 2 hours, by diluting in normal saline and plating on to the Tryptic Soya Agar plates (BD, USA). The plates were incubated for 24 hours to arrive at the viable bacterial count. The antibacterial activity is expressed in terms of Colony Forming Units (CFU). The decrease of 1 Log CFU/ml, after administration of combination of present invention, in comparison to initial bacterial count corresponds to 90% killing of bacteria. Similarly, 2 Log CFU/ml reductions corresponds to 99% killing of bacteria and 3 Log CFU/ml reductions is equal to 99.9% killing of bacteria.
The combination according to invention was tested against highly resistant A. baumannii S 226 strain producing Carbapenem hydrolyzing (CHDL) Oxacillinases [OXA-51, OXA-23]. The assay without any antibacterial agent was taken as control.

The mark [1] stands for this setting: 2 hours, active ingredient alone at 8 mcg/ml.
The mark [2] stands for this setting: 4 hours, active ingredient alone at 8 mcg/ml.
Where [3] appears, read: 6 hours, active ingredient alone at 8 mcg/ml.
[4] abbreviates: 8 hours, active ingredient alone at 8 mcg/ml.
[5] abbreviates: 24 hours, active ingredient alone at 8 mcg/ml.

Molecules are shown by their SMILES. Counter-ions that a name gives are not always drawn.

Turning to `C[C@@H](O)[C@H]1C(=O)N2C(C(=O)O)=C(S[C@@H]3CN[C@H](CNS(N)(=O)=O)C3)[C@H](C)[C@H]12` [Doripenem], the Bacterial count under setting [1] was 7.95 Log10 CFU/ml; the Bacterial count under setting [2] stood at 8.08 Log10 CFU/ml; the Bacterial count under setting [3] is reported as 8.12 Log10 CFU/ml; the Bacterial count under setting [4] was 8.50 Log10 CFU/ml; the Bacterial count under setting [5] is on record as 8.30 Log10 CFU/ml. The “decrease of the bacterial count of A. baumannii throughout the duration of the study” value (“decrease” for short) (used alone at 8 mcg/ml) is recorded as “failed to decrease the bacterial count”.
`C[C@@H](O)[C@H]1C(=O)N2C(C(=O)O)=C(SCCN=CN)C[C@H]12` [Imipenem]: the Bacterial count under setting [1] was 7.46 Log10 CFU/ml; the Bacterial count under setting [2] came out at 8.26 Log10 CFU/ml; the Bacterial count under setting [3] was 8.43 Log10 CFU/ml; the Bacterial count under setting [4] worked out at 8.52 Log10 CFU/ml; the Bacterial count under setting [5] amounted to 8.74 Log10 CFU/ml.
On to `C[C@@H](O)[C@H]1C(=O)N2C(C(=O)O)=C(S[C@@H]3CN[C@H](C(=O)N(C)C)C3)[C@H](C)[C@H]12` [Meropenem], for which the Bacterial count stood at 8.00 Log10 CFU/ml under setting [1]; 8.34 Log10 CFU/ml under setting [2]; 8.45 Log10 CFU/ml under setting [3]; 8.65 Log10 CFU/ml under setting [4]; 8.70 Log10 CFU/ml under setting [5]. For the same compound, the “decrease” value (used alone at 8 mcg/ml) is listed as “failed to decrease the bacterial count”.
Take `N#C[C@@H]1CC[C@@H]2CN1C(=O)N2OS(=O)(=O)O` [Sodium salt of a compound of Formula (I), sodium salt of sulphuric acid, mono[(1R,2S,5R)-2-cyano-7-oxo-1,6-diazabicyclo[3.2.1]oct-6-yl] ester]: the Bacterial count is recorded as 7.93 Log10 CFU/ml (2 hours, active ingredient alone at 4 mcg/ml); 7.95 Log10 CFU/ml (4 hours, active ingredient alone at 4 mcg/ml); 8.20 Log10 CFU/ml (6 hours, active ingredient alone at 4 mcg/ml); 8.50 Log10 CFU/ml (8 hours, active ingredient alone at 4 mcg/ml); 8.60 Log10 CFU/ml (24 hours, active ingredient alone at 4 mcg/ml). Further, where the note is “used alone at 4 mcg/ml”, the “decrease” value is “failed to decrease the bacterial count”.
